Test results: patent US20240252638A1, “INDUCER FOR REPROGRAMMING T CELL INTO NK-LIKE CELL AND APPLICATION OF INDUCER” (ZHAOTAI IMMUGENE BIOMEDICINE (HONG KONG) LIMITED, priority 2021, published 2024)

Key:
[1] = system: primary T cells in human umbilical cord blood; assay: Detection of phenotypes of reprogrammed T cells through flow cytometry (NKp30/NKp46 expression); type: cell-based; conditions: for expression rate of NKp30 in CD4 T cells: drug concentrations of Table 1 (DAC 0.2 μM, GSK-3484862 2 μM, Mocetinostat 0.2 μM), DMSO group approximately 7.74%; for expression rate of NKp46 in CD8 T cells: DMSO group approximately 0.26%; for expression rate of NKp30 in CD8 T cells: DMSO group approximately 12.2%; for expression of NKp46 and NKp30 in CD4 and CD8 among induced T cells compared with DMSO: induced by a single inhibitor until Day5; for expression of NKp46 and NKp30 in CD4 and CD8 among induced T cells compared with DMSO / induction of T cells to reprogram into NK-like cells: concentrations of Table 1; for induction of T cells to reprogram into NK-like cells: induced until Day5
Excerpt: In this example, umbilical cord blood mononuclear cells (UCBMCs) were separated from the umbilical cord blood through Ficoll-hypaque (polysucrose-meglumine diatrizoate) density gradient centrifugation, 4×10^7 CD3 positive UCBMCs were taken and cultured overnight with a cell density of 2×10^6 cells/mL, remaining UCBMCs were frozen, and T cells were sorted by the Pan T cell isolation kit and cultured for a period of time to obtain ≥4×10^7 CD3 positive T cells with a viability rate of ≥70% and without contamination by exogenous microorganisms such as bacteria, fungi and mycoplasmas.
(1) T cells activated by TransAct for 36 h were taken and centrifuged at 300 g for 5 min, the T cells were resuspended with an IMDM+5% FBS+1% double antibody (a 100×penicillin-streptomycin mixed solution)+IL2 (300 U), and a T cell density was adjusted to (2−3)×10^5 cells/mL.
(2) Groups of small molecule inhibitor drugs were added to the resuspended T cells, respectively. Half of media were changed every day, and extra new drugs were added according to volumes obtained after the media were changed. A day when the drugs were initially added was denoted as Day0, and when the drugs continued to be added until Day5, the mixtures were centrifuged at 300 g for 5 min, and the media were changed. Then, the cells continued to be cultured with an IMDM+5% FBS+1% double antibody (a 100×penicillin-streptomycin mixed solution).
(1) 200 μL each of the T cells induced by DAC until Day6, the T cells induced by GSK-3484862 until Day 6, the T cells co-induced by DAC and Mocetinostat until Day6, the T cells co-induced by GSK-3484862 and Mocetinostat until Day6 and the untreated T cells were taken and centrifuged at 400 g for 4 min. After supernatant was discarded, 50 μL phosphate buffer (PBS) was added to resuspend the cells. Then, 0.5 μL each of CD3 PE-Cy7, CD4 APC-Cy7, CD8 FITC, NKp30 PE and NKp46 APC were added to each of the mixtures and incubated for 30 min at 4° C. in the dark, 500 μL PBS was added to dilute the antibody and centrifuged at 400 g for 4 min, supernatant was carefully discarded, and 300 μL PBS was added to resuspend the cells, transferred to a flow tube and loaded on a flow cytometer.
(2) Data analysis was performed by BD-flowcyto analysis software, and 10000 cells were collected in each tube. The appearance of a significant increase in NKp-30 and the appearance of an NKp46-positive cell population were used as signs of successful reprogramming, and a percentage of positive T cells was calculated.
In addition, the T cells induced by GSK-3484862 until Day5, the T cells induced by Tazemetostat until Day5, the T cells induced by GSK126 until Day5, the T cells co-induced by Tazemetostat and GSK-3484862 until Day5, the T cells co-induced by GSK-3484862 and GSK126 until Day5 and the untreated T cells were taken and subjected to the same operations, and phenotypes of the reprogrammed T cells were identified through flow cytometry. The results are shown in FIGS. 9A, 9B, 10A, 10B, 11A, 11B, 12A, 12B, 13A, 13B, 14A and 14B.

[2] = system: K562 cells (human chronic myeloid leukemia cells); assay: In vitro killing detection of reprogrammed T cells (luciferase); type: cell-based; conditions: effector-target ratios 16:1 to 1:4, co-cultured 24 h, vs T cells treated by DMSO
Excerpt: (1) The T cells induced by GSK-3484862, the T cells induced by DAC, the T cells induced by Mocetinostat, the T cells co-induced by GSK-3484862 and Mocetinostat, the T cells co-induced by DAC and Mocetinostat and the T cells treated by DMSO were mixed with 1×10^4 K562 cells (human chronic myeloid leukemia cells) according to different effector-target ratios (16:1, 8:1, 4:1, 2:1, 1:1, 1:2 and 1:4), respectively, and added to a 96-well cell culture plate. Three duplicate wells were set for each group, and a group with the addition of tumor cells alone was set as a positive control. After centrifugation at 250×g for 5 min, the cells were placed in a 5% CO2 incubator at 37° C. and co-cultured for 24 h.
(2) After 24 h, 100 μL/well luciferase substrate (1×) was added to the 96-well cell culture plate, and the cells were resuspended and uniformly mixed. RLU (Relative light units) were immediately measured by a multifunctional microplate reader for 0.1 s. A killing proportion calculation formula of a quantitative killing efficiency assessment method using a luciferase is as follows:
100%×(control well reading-experimental well reading)/control well reading (blank group (without the addition of the cells) reading may be ignored).
In addition, according to the same method, the T cells induced by GSK-3484862, the T cells induced by Tazemetostat, the T cells induced by GSK126, the T cells co-induced by GSK-3484862 and Tazemetostat and the T cells co-induced by GSK-3484862 and GSK-126 were separately used and the T cells treated by DMSO was used as a control to detect killing abilities of the reprogrammed T cells against K562 cells.

[3] = system: reprogrammed T cells co-cultured with K562; assay: Secretion of cytokines IFN-γ and granzyme B by reprogrammed T cells co-cultured with K562 (ELISA); type: cell-based, human; conditions: co-cultured with K562 for 48 h, supernatant
Method: The T cells induced by DAC, the T cells induced by GSK-3484862, the T cells co-induced by DAC and Mocetinostat, the T cells co-induced by GSK-3484862 and Mocetinostat and the T cells treated by DMSO were co-cultured with human chronic myeloid leukemia cells K562 for 48 h, respectively, and expression levels of cytokines IFN-γ and a granzyme B in supernatant were detected through ELISA.

[4] = T cells induced until Day6, drug concentrations of Table 1

| Compound | expression rate of NKp30 in CD4 T cells ([1]; T cells induced until Day6) | expression rate of NKp46 in CD8 T cells [1, 4] | expression rate of NKp30 in CD8 T cells [1, 4] | in vitro killing of K562 by induced T cells [2] | expression of NKp46 and NKp30 in CD4 and CD8 among induced T cells compared with DMSO [1] | induction of T cells to reprogram into NK-like cells [1] | expression rate of NKp46 in CD4 T cells [1, 4] | IFN-γ and granzyme B secreted by induced T cells (immune effect) [3] |
| --- | --- | --- | --- | --- | --- | --- | --- | --- |
| Nc1ncn([C@H]2C[C@H](O)[C@@H](CO)O2)c(=O)n1 [DAC, decitabine] | approximately 83.2% | approximately 11.2% | approximately 60.5% |  |  |  |  |  |
| CC[C@H](C)n1cc(C)c2c(C(=O)NCc3c(C)cc(C)[nH]c3=O)cc(-c3ccc(N4CCNCC4)nc3)cc21 [GSK126] |  |  |  | effectively kill | significantly expressed | can induce the T cells to reprogram into NK-like cells |  |  |
| CCc1c(C#N)c(SC(C(N)=O)c2ccccc2)nc(N(C)C)c1C#N (stereo not drawn) [GSK-3484862] | approximately 81.4% | approximately 21.4% | approximately 50.8% | effectively kill | significantly expressed | can induce the T cells to reprogram into NK-like cells | approximately 5.16% | produce an immune effect |
| Nc1ccccc1NC(=O)c1ccc(CNc2nccc(-c3cccnc3)n2)cc1 [Mocetinostat] |  |  |  | effectively kill |  |  |  |  |
